Measured values as given in the CheMixHub viscosity set.

Experiment: xn = mol fraction of the nth substance listed

CCCCN + CC(C)(C)O
viscosity [mPa·s], 101 kPa
Settings	x2 = 0.1	x2 = 0.2004	x2 = 0.2999	x2 = 0.4	x2 = 0.4996	x2 = 0.6	x2 = 0.7	x2 = 0.8	x2 = 0.9004	x2 = 0.95
303.15 K	0.5062	0.5833	0.681	0.804	0.9662	1.177	1.466	1.866	2.458	2.869
308.15 K	0.4732	0.541	0.6257	0.733	0.8694	1.046	1.279	1.591	2.021	2.3
313.15 K	0.4425	0.5022	0.5783	0.6716	0.7865	0.9346	1.119	1.363	1.68	1.874
318.15 K	0.4156	0.4687	0.5345	0.6159	0.7149	0.8377	0.9897	1.183	1.417	1.553
323.15 K	0.3905	0.4378	0.4957	0.5666	0.6519	0.7551	0.8801	1.031	1.21	1.309

CC[N+](=O)[O-] + CC(C)(C)O
viscosity [mPa·s], 101.33 kPa
Settings	298.15 K	303.15 K	313.15 K
x2 = 0.0502	0.646	0.61	0.546
x2 = 0.1001	0.647	0.609	0.544
x2 = 0.1499	0.655	0.615	0.546
x2 = 0.2002	0.67	0.626	0.547
x2 = 0.2501	0.691	0.643	0.563
x2 = 0.3001	0.718	0.667	0.58
x2 = 0.35	0.753	0.694	0.597
x2 = 0.4	0.794	0.73	0.622
x2 = 0.4501	0.845	0.778	0.652
x2 = 0.5001	0.909	0.824	0.687
x2 = 0.55	0.988	0.886	0.728
x2 = 0.6	1.075	0.958	0.777
x2 = 0.6499	1.185	1.047	0.836
x2 = 0.6998	1.323	1.158	0.907
x2 = 0.7498	1.499	1.3	0.997
x2 = 0.7998	1.73	1.475	1.104
x2 = 0.8498	2.063	1.728	1.258
x2 = 0.8997	2.505	2.068	1.449
x2 = 0.95	3.231	2.574	1.718

Cc1ccncc1 + CC(C)(C)O
298.15 K, 101.33 kPa
Settings	viscosity [mPa·s]
x2 = 0.0724	0.8901
x2 = 0.2166	0.9887
x2 = 0.2902	1.056
x2 = 0.3416	1.122
x2 = 0.507	1.386
x2 = 0.606	1.641
x2 = 0.6484	1.777
x2 = 0.7197	2.085
x2 = 0.8	2.537
x2 = 0.8603	2.959

O=C(O)C(Cl)(Cl)Cl + CC(C)=O
viscosity [mPa·s], 101 kPa
Settings	298.15 K	308.15 K	318.15 K
x1 = 0.0484	0.368	–	–
x1 = 0.1316	0.4855	–	–
x1 = 0.165	–	0.5039	0.453
x1 = 0.2517	–	0.6893	0.6078
x1 = 0.2543	0.8156	–	–
x1 = 0.3485	–	1.01	0.8833
x1 = 0.3826	1.433	–	–
x1 = 0.4411	–	1.508	1.273
x1 = 0.5048	2.571	–	–
x1 = 0.5537	–	2.424	1.967
x1 = 0.5971	3.829	–	–
x1 = 0.6808	–	3.725	2.922
x1 = 0.7175	5.808	–	–
x1 = 0.7475	–	4.527	3.504
x1 = 0.8521	–	5.855	4.441
x1 = 0.9183	–	–	5.024
